Experimental data published in ChEMBL document CHEMBL3046254, “Antifeedant Activity Evaluation of Withanolides from Jaborosa integrifolia” (2000).

Experiments:
Spodoptera littoralis [1] = assay: Antifeedant activity against Spodoptera littoralis assessed as inhibition of diet consumption by leaf disk choice assay relative to control; type: functional
Spodoptera littoralis [2] = assay: Antifeedant activity against Spodoptera littoralis assessed as inhibition of diet consumption at 20 ug/cm2 by leaf disk choice assay relative to control; type: functional; conditions: foliar

Compound	inhibition (INH) (Spodoptera littoralis [1])	inhibition at 20 µg/cm2 (Spodoptera littoralis [2])
CC1=C(CO)C(=O)O[C@@H]([C@@H](C)[C@H]2CC[C@H]3[C@@H]4C[C@@H](O)C5=CC=CC(=O)[C@]5(C)[C@H]4CC[C@]23C)C1 [JABOROSALACTONE B]	19%	
CC1=C(CO)C(=O)O[C@@H]([C@@H](C)[C@H]2CC[C@H]3[C@@H]4C[C@@H](O)[C@@]5(O)CC=CC(=O)[C@]5(C)[C@H]4CC[C@]23C)C1 [JABOROSALACTONE D]	-19%	
CC1=C(CO)C(=O)O[C@@H]([C@@H](C)[C@H]2CC[C@H]3[C@@H]4C[C@H]5O[C@]56CC=CC(=O)[C@]6(C)[C@H]4CC[C@]23C)C1 [JABOROSALACTONE A]		74%
